What all share (assay type): cell-based
The target of assay [1] is T1, mitochondrial complex I (NADH: ubiquinone oxidoreductase) (Rattus norvegicus, UniProt A6K8N6+P03889+Q641Y2). Particulars: read-out: % inhibition at 10 μM.
For assay [2], the target named is T1, mitochondrial complex I (NADH: ubiquinone oxidoreductase). The settings on record: read-out: % inhibition at 10 μM. This is another data set of the same source.
The target is the same in assay [3]. Particulars: read-out: % inhibition at 200 μM.
Assay [4] has the same target. Particulars: read-out: % inhibition at 10 μM. This is another data set of the same source.
The target is the same in assay [5]. Particulars: read-out: % inhibition at 10 μM. This is another data set of the same source.
Assay [6] shares this target. Particulars: read-out: % inhibition at 10 μM. This is another data set of the same source.

Read-outs that look alike come from different tables or passages of the source.

What is called inhibition is the change of the read-out against control, counted positive when it falls. With `CCN1C(=Cc2ccc3ccccc3[n+]2CC)C=Cc2ccccc21` [B, 2,2’-cyanine], the inhibition at 10 µM in assay [1] is 70.8%.

Take `CCCN1C(=CC=Cc2sc3ccccc3[n+]2CCC)Sc2ccccc21` [E, DiSC3(3)]: the inhibition at 10 µM in assay [2] amounted to 83%.

As for `C[n+]1ccc(-c2ccccc2)cc1` [A, 1-methyl-4-phenylpyridinium], the inhibition at 200 µM in assay [3] is 12.5%.

As to `CCN1C(=CC=Cc2oc3ccccc3[n+]2CC)Oc2ccccc21` [D, DiOC2(3)], the inhibition at 10 µM in assay [4] is 79%.

With `C=C(C)[C@H]1Cc2c(ccc3c2O[C@@H]2COc4cc(OC)c(OC)cc4[C@@H]2C3=O)O1` [H, rotenone], the inhibition at 10 µM in assay [5] was 88%.

Regarding `CCN1C=CC(=Cc2cc[n+](CC)c3ccccc23)c2ccccc21` [C, 4,4’-cyanine], the inhibition at 10 µM in assay [6] was 60.8%.

As for `CCCN1C(=CC=CC=Cc2sc3ccccc3[n+]2CCC)Sc2ccccc21` [F, DiSC3(5)], in assay [2], the inhibition at 10 µM was found to be 83%.

The values are drawn from PMC6245648 (Chemical research in toxicology, 2016).
